Source: US20100152188A1, “Novel Heterocyclic Compounds” (priority 2005, published 2010)

Experiments:
MDAMB-231/U 251 = experiment: Anti-cancer screen (MTT), MDAMB-231/U 251; format: cell-based; conditions: for CC50: 48 h, read-out: MDAMB-231/U 251 LC50; for GI50 / IC (TGI): 48 hours with compound, MTT, tested at 0.01-100 µM
Description: (§1) Experimental drugs are screened for anti-cancer activity in three cell lines for their GI50, TGI and LC50 values (using five concentrations for each compound). The cell lines are maintained in DMEM containing 10% fetal bovine serum. 96 well micro titer plates are inoculated with cells in 100 µL for 24 hours at 37° C., 5% CO2, 95% air and 100% relative humidity. 5000 HCT 116 cells/well, 5000 NCIH 460 cells/well and 5000 U251 cells/well are plated. A separate plate with these cell lines is also inoculated to determine cell viability before the addition of the compounds (T0).
(§2) Following 24-hour incubation, experimental drugs are added to the 96 well plates. Each plate contains one of the above cell lines and the following in triplicate: five different concentrations (0.01, 0.1, 1, 10 and 100 µM) of four different compounds, appropriate dilutions of a cytotoxic standard and control (untreated) wells. Compounds are dissolved in DMSO to make 20 mM stock solutions on the day of drug addition and frozen at −20° C. Serial dilutions of these 20 mM stock solutions are made in complete growth medium such that 100 µL of these drug solutions in medium, of final concentrations equaling 0.01, 0.1, 1, 10 and 100 µM can be added to the cells in triplicate. Standard drugs whose anti-cancer activity has been well documented and which are regularly used are doxorubicin and SAHA.
(§3) For T0 measurement, 24 hours after seeding the cells, 10 µL of 3-(4,5-Dimethyl-2-thiazolyl)-2,5-diphenyl-2H-tetrazolium (MTT) solution per well is added and incubation carried out for 3 hours at 37° C., 5% CO2, 95% air and 100% relative humidity, protected from light. Cells incubated with compounds for 48 hours are treated similarly except with the addition of 20 µl MTT solution per well and a subsequent incubation under the same conditions. After 3 hours of MTT incubation, well contents are aspirated carefully followed by addition of 150 µL DMSO per well. Plates are agitated to ensure solution of the formazan crystals in DMSO and absorbance read at 570 nm.
(§4) Percent growth is calculated for each compound's concentration relative to the control and zero measurement wells (T0; viability right before compound addition). If a test well's O.D. value is greater than the T0 measurement for that cell line
(§5) %Growth=(test−zero)/(control−zero)×100
(§6) If a test well's O.D. value is lower than the T0 measurement for that cell line, then,
(§7) %Growth=(test−zero)/zero×100

[1] = system: NCIH460, HCT116, MDAMB-231/U 251; experiment: Anti-cancer screen, mean GI50 over the cell lines; format: cell-based; conditions: in µM
Description: as §1, §2, §3, §4

NCIH460 = experiment: Anti-cancer screen (MTT), NCIH460; format: cell-based; conditions: Homo sapiens, NCI-H460, 48 hours with compound, tested at 0.01-100 µM
Description: as §1, §2, §3, §4, §5, §6, §7

HCT116 = experiment: Anti-cancer screen (MTT), HCT116; format: cell-based; conditions: Homo sapiens, HCT-116, 48 hours with compound, tested at 0.01-100 µM
Description: as §1, §2, §3, §4, §5, §6, §7

HDAC = HDAC inhibition; format: biochemical; conditions: for HDAC Inhibition 1 μM: compound at 1 μM; for HDAC Inhibition 10 μM: compound at 10 μM

Row | SMILES | CC50 (MDAMB-231/U 251) [µM] | GI50 (MDAMB-231/U 251) [µM] | IC (TGI) (MDAMB-231/U 251) [µM] | Mean GI50 [1] | GI50 (NCIH460) [µM] | IC (TGI) (NCIH460) [µM] | LC50 (NCIH460) [µM] | GI50 (HCT116) [µM] | IC (TGI) (HCT116) [µM] | LC50 (concentration giving 50% net cell kill relative to T0) (HCT116) [µM] | HDAC Inhibition 1 μM (HDAC) | HDAC Inhibition 10 μM (HDAC)
1 | O=C(Cc1csc(NC(=O)OCc2cccnc2)n1)Nc1nc2ccccc2s1 [Example 11, Pyridin-3-ylmethyl{4-[2-(1,3-benzothiazol-2-ylamino)-2-oxoethyl]-1,3-thiazol-2-yl}carbamate] | > 100 | 5 | 10 | 6 | 7 | > 100 | > 100 | > 100 | > 100 | > 100 | – | –
2 | CNC(=O)c1ccc(CNC(=O)OCc2nc3ccccc3[nH]2)cc1 [Example 41, 1H-Benzimidazol-2-ylmethyl{4-[(methylamino)carbonyl]benzyl}carbamate] | > 100 | 9 | > 100 | 24.3 | 6 | > 100 | > 100 | 58 | > 100 | > 100 | – | –
3 | Nc1ccccc1NC(=O)Cc1csc(NC(=O)OCc2c(F)c(F)c(F)c(F)c2F)n1 [Example 22, Pentafluorobenzyl(4-{2-[(2-aminophenyl)amino]-2-oxoethyl}-1,3-thiazol-2-yl)carbamate] | > 100 | 10 | > 100 | 37 | 48 | > 100 | > 100 | 53 | > 100 | > 100 | – | –
4 | O=C(NCc1ccc(C(=O)Nc2nnc(C3CC3)s2)cc1)OCc1c(F)c(F)c(F)c(F)c1F [Example 56, Pentafluorobenzyl(4-{[(5-cyclopropyl-1,3,4-thiadiazol-2-yl)amino]carbonyl}benzyl)carbamate] | 65 | 0.8 | 7 | 0.5 | 0.3 | 0.8 | > 100 | 0.5 | > 100 | > 100 | – | –
5 | CCOC(=O)CN(OC)C(=O)c1ccc(CNC(=O)OCc2cccs2)cc1 [Example 109, ethyl{methoxy[4-({[(2-thienylmethoxy)carbonyl]amino}-methyl)benzoyl]amino}acetate] | – | – | – | – | – | – | – | – | – | – | 8.84 | 15.41
6 | CS(=O)(=O)Oc1ccc(NC(=O)c2ccc(CNC(=O)OCc3cccs3)cc2)cc1 [Example 70, 4-[(4-{[(2-thienylmethyloxycarbonyl)amino]methyl}benzoyl)amino]phenylmethanesulfonate] | – | – | – | 19.65 | – | – | – | – | – | – | – | –
7 | O=C(NCc1ccc(C(=O)N2CCOCC2)cc1)OCc1ccsc1 [Example 51, 3-Thienylmethyl[4-(morpholin-4-ylcarbonyl)benzyl]carbamate] | > 100 | > 100 | > 100 | – | 94.5 | > 100 | > 100 | > 100 | > 100 | > 100 | 3.20 | 3.18
8 | Nc1ccccc1NC(=O)c1ccc(CNC(=O)OCc2ccsc2)cc1 [Example 49, 3-Thienylmethyl(4-{[(2-aminophenyl)amino]carbonyl}benzyl)carbamate] | 82 | 31 | 56 | – | 42 | 96 | > 100 | 2 | 59 | > 100 | 10.15 | 18.78
9 | CN1CCN(C(=O)c2ccc(CNC(=O)OCc3ccsc3)cc2)CC1 [Example 50, 3-Thienylmethyl{4-[(4-methylpiperazin-1-yl)carbonyl]benzyl}carbamate] | > 100 | 65 | > 100 | – | 64 | > 100 | > 100 | 64 | > 100 | > 100 | −3.95 | 1.45
